# Test results: patent publication US20120283175A1, “ANTIBACTERIAL COMPOSITIONS” (Achaogen, Inc., priority 2009, published 2012)
# “And” between values parts separate entries of the source, which are not always exact repeats. Identical values can stand only once. Like-named read-outs stand apart in the source and are kept apart here.
# What was measured:
# envA1 (D22) E. coli = experiment: MIC by broth microdilution, isogenic envA1 mutant strain; type: cell-based; details: Strain envA1 (D21)
# Description: (§1) Bacterial isolates were cultivated from −70° C. frozen stocks of the indicated strains by overnight passages at 35° C. in ambient air on Mueller-Hinton agar (Beckton Dickinson, Franklin Lakes, N.J.). Minimum Inhibitory Concentrations (MICs) were determined by the broth microdilution method in accordance with the Clinical and Laboratory Standards Institute (CLSI) guidelines. In brief, organism suspensions were adjusted to a 0.5 McFarland standard to yield a final inoculum between 3×10^5 and 7×10^5 colony-forming units (CFU)/mL. Drug dilutions and inocula were made in sterile, cation adjusted Mueller-Hinton Broth (Beckton Dickinson). An inoculum volume of 100 μL was added to wells containing 100 μL of broth with 2-fold serial dilutions of drug. All inoculated microdilution trays were incubated in ambient air at 35° C. for 18-24 hours. Following incubation, the lowest concentration of the drug that prevented visible growth (OD600 nm <0.05) was recorded as the MIC.
# [1] = system: P. aeruginosa (ATCC27853)
# Text: (§2) The model was run essentially as described by Craig and others (see Gudmundsson et al., “Murine Thigh Infection Model,” Handbook of Animal Models of Infection, M. A. Sande and O. Zak, Eds.; London: Academic Press, 1999, pp 137-144). Briefly, mice were rendered neutropenic prior to infection with 2 doses of cyclophosphamide, and then infected intramuscularly in the thigh with inocula of 10^3-10^5 CFU of either K. pneumo. (ATCC43816) or P. aeruginosa (ATCC27853). Antibiotics or vehicle alone as a negative control were administered twice at 2 hrs and 14 hrs post-infection. The animals were kept neutropenic for the duration of the experiment in order to minimize the effect of white blood cells on the infection such that the microbiological readout measures the in vivo interaction of drugs and bacteria. At 24 hrs post-infection, thighs were harvested, homogenized, and plated to measure the number of CFUs surviving per thigh. Thighs from a subset of animals were also harvested 2 hrs post-infection to record the CFUs present just prior to the first antibiotic treatment (pre-treatment).
# This table focuses on the sensitive part of the LpxCi-4 dose response curve (30 mg/kg) by examining the mean log CFU at 0 or 24 hours, as well as the log change in CFU at 24 hours relative to zero hours (“ΔLogCFU vs […]”). Data is given for animals treated with vehicle, LpxCi-4 at 30 mg/kg, a second agent alone at the indicated doses or the combination of LpxCi-4 at 30 mg/kg plus the second agent at the indicated dose. The standard errors for each measurement are also given (n=5 animals/group). By comparing the observed drop in CFU of the combination with the sum of the drop in CFU associated with each of the two agents given separately, one can determine whether the combination is, in fact, synergistic in vivo.
# K. pneumo. (ATCC43816) = experiment: Neutropenic thigh in vivo efficacy model (mice); parameters: species or system Klebsiella pneumoniae; Static Dose, LpxC cmpd / Static Dose, LpxC in combination: unit not given here; details: for Static Dose, LpxC cmpd: LpxC compound alone; for Static Dose, LpxC in combination: combination agent Vanco (440 mg/kg/day)
# Text: as §2
# [2] = system: Klebsiella pneumoniae (ATCC 43816); type: in vivo; details: for Mean CFU/g thigh muscle (SEM): normal plates; for Mean CFU/g thigh muscle (SEM) / CFU/Drug Plate - Dilution 10^0 / CFU/Drug Plate - Dilution 10^−1: Vancomycin 25 mg/kg, LpxC-i 35 mg/kg; for CFU/Drug Plate - Dilution 10^0 / CFU/Drug Plate - Dilution 10^−1: per animal N 1-5; as to CFU/Drug Plate - Dilution 10^0: key: +: Too many colonies to permit accurate counting
# Description: Vancomycin and LpxCi-5 were dissolved in 30% HPβCD (2-hydroxypropyl-β-cyclodextrin). Test substances were each administered subcutaneously (SC) singly or in combination to test animals at 2 hours and 14 hours after bacterial inoculation then bid daily for a total of 1, 2, 3 or 7 day(s). The dosing volume was 5 mL/kg.
# Groups of 5 or 10 male specific-pathogen-free CD-1 (Crl.) mice weighing 24±2 g were used. Animals were immunosuppressed by two or three intraperitoneal injections of cyclophosphamide, the first at 150 mg/kg 4 days before infection (day −4) and the second or third at 100 mg/kg 1 day before or 3 days after infection (day −1 or +3). On day 0, animals were inoculated intramuscularly (0.1 mL/thigh) into the right thigh with a specific number (1.35×10^7 CFU/mouse) of Klebsiella pneumoniae (ATCC 43816). Vehicle and test substances (singly or in combination) were each administered subcutaneously 2 hours and 14 hours after inoculation then bid for a total of 1, 2, 3 or 7 consecutive day(s). Groups at 24, 48, 72 hours and day 8 hours after treatment as the designated time of harvest, muscle of the right thigh was harvested from each of the survival test animals. An additional group with no treatment, at 2 hours after inoculation, the muscle of the right thigh was harvested and viable CFU on agar plates with or without drug were quantified by standard methods. Animals in groups designated for Day 8 harvest are 10 mice and daily tally of survivors were kept until harvest and recorded. A non-infected group was just treated with LpxCi-5 and kept out to Day 8 and then harvested. The removed muscle tissues were then homogenized in 3˜4 mL of PBS, pH 7.4, with a ceramic mortar. Homogenates of 0.1 mL were used for serial 10-fold dilutions and plated on Muller-Hinton Broth in 1.5% Bacto agar and plated in parallel with drug plates for CFU determination. The original inoculum was adjusted to 2×10^8 CFU/0.1 mL and then plated onto the 3 different drug plates of LpxCi-5 for CFU count.
# The immunity of animals treated with vehicle or vancomycin alone was suppressed by two intraperitoneal injections of cyclophosphamide, the first was at 150 mg/kg 4 days before infection (day −4) and the second was at 100 mg/kg 1 day before infection (day −1). On day 0, test compound and vehicle were each administered subcutaneously at 2 and 14 hrs after animals were inoculated intramuscularly (0.1 mL/thigh) with 1.35×10^7 CFU/mouse of Klebsiella pneumoniae (ATCC 43816).
# (§3) The immunity of animals treated with LpxCi-5 alone was suppressed by two or three intraperitoneal injections of cyclophosphamide, the first was at 150 mg/kg 4 days before infection (day −4); the second and the third was at 100 mg/kg 1 day before and three days after infection (day −1 and day +3). On day 0, test compound were each administered subcutaneously bid at 2 and 14 hrs after animals were inoculated intramuscularly (0.1 mL/thigh) with 1.35×10^7 CFU/mouse of Klebsiella pneumoniae (ATCC 43816) for one, two, three or seven consecutive days. At 24, 48, 72 hours or at day 8 after treatment, muscle of the right thigh was harvested from each of the test animals for CFU determination in normal and drug plates.
# as §3, with “both vancomycin and the LpxC inhibitor, LpxCi-5,” for “LpxCi-5 alone”, “compounds in combination” for “compound”, “days.” for “days. At 24, 48, 72 hours or at day 8 after treatment, muscle of the right thigh was harvested from each of the test animals for CFU determination in normal and drug plates.”
# gram negative bacteria = experiment: Checkerboard synergy score at fractions of the antibacterial agent's MIC, with LpxCi-1, -2, -3; type: cell-based; parameters: scale not given here
# Description: Partial or full inhibition of LpxC should compromise the outer membrane and thus allow these synergizing agents to enter the cells and exert an antibacterial effect at concentrations where cells untreated with an LpxC inhibitor are unaffected. As a first step, checkerboard synergy assays for a variety of antibacterial agents were perform with several LpxC inhibitors, on several species of gram negative bacteria.
# as §1
# [3] = strain 27853, combination agent Vanco
# [4] = with LpxCi-3, antibacterial agent at 1/16 MIC
# [5] = with LpxCi-3, antibacterial agent at 1/64 MIC
# [6] = with LpxCi-3, antibacterial agent at ¼ MIC
structure (smiles),measurement,setting,value
"Cc1onc(-c2ccccc2)c1C(=O)N[C@@H]1C(=O)N2[C@@H]1SC(C)(C)[C@@H]2C(=O)O [Oxacillin, oxacillin]",MIC,envA1 (D22) E. coli,16 µg/mL
same,ΔLogCFU vs 24 hr,"[1]; 24 hr, second block of Table 5, mg/kg/day b.i.d.: 3936 30, Eryth. 60, Dapto. 3, Oxacil. 100",−0.35
same,Log CFU Mean,"[1]; 24 hr, second block of Table 5, mg/kg/day b.i.d.: 3936 30, Eryth. 60, Dapto. 3, Oxacil. 100, n=5",7.29
same,in vivo synergy with LpxC inhibitors,"[1]; P. aeruginosa (ATCC27853), summary",modest but potentially useful in vivo synergy
"C[C@@H](O)[C@H](NC(=O)c1ccc(C#Cc2ccc(CN3CCOCC3)cc2)cc1)C(=O)NO [LpxCi-3, N-((2S,3R)-3-hydroxy-1-(hydroxyamino)-1-oxobutan-2-yl)-4-((4-(morpholinomethyl)phenyl)ethynyl)benzamide]",in vivo synergy with vancomycin,K. pneumo. (ATCC43816); bacterial strain ATCC43816,in vivo synergy
same,"Static Dose, LpxC cmpd",K. pneumo. (ATCC43816); strain 43816,>1000
same,"Static Dose, LpxC in combination",K. pneumo. (ATCC43816); strain 43816,107
"CC(C)(O)[C@H](NC(=O)c1ccc(C#CC#CC2CC2)cc1)C(=O)NO [LpxCi-6, (S)-4-(cyclopropylbuta-1,3-diynyl)-N-(3-hydroxy-1-(hydroxyamino)-3-methyl-1-oxobutan-2-yl)benzamide]","Static Dose, LpxC cmpd",K. pneumo. (ATCC43816); strain 43816,240
same,Fold Shift Static Dose,"K. pneumo. (ATCC43816); strain 43816, combination agent Vanco",3x
same,"Static Dose, LpxC in combination",K. pneumo. (ATCC43816); strain 43816,80
same,in vivo synergy with vancomycin,[1]; bacterial strain ATCC27853,in vivo synergy
same,"Static Dose, LpxC cmpd","[1]; strain 27853, LpxC compound alone",269
same,Fold Shift Static Dose,[1]; [3],1.8x
same,"Static Dose, LpxC in combination",[1]; [3],151
"CC(C)(N)[C@H](NC(=O)c1ccc(C#C/C=C/C2CC2)cc1)C(=O)NO [LpxCi-5, (S,E)-N-(3-amino-1-(hydroxyamino)-3-methyl-1-oxobutan-2-yl)-4-(4-cyclopropylbut-3-en-1-ynyl)benzamide]",Mean CFU/g thigh muscle (SEM),"[2]; 24 hr, SC bid × 1",3.81 × 10^7 CFU/g
same,CFU/Drug Plate - Dilution 10^0,"[2]; 24 hr, SC bid × 1",+
same,CFU/Drug Plate - Dilution 10^−1,"[2]; 24 hr, SC bid × 1",780 CFU/Drug Plate and + (4×)
same,Mean CFU/g thigh muscle (SEM),"[2]; 48 hr, SC bid × 2",3.80 × 10^8 CFU/g
same,CFU/Drug Plate - Dilution 10^0,"[2]; 48 hr, SC bid × 2",+
same,CFU/Drug Plate - Dilution 10^−1,"[2]; 48 hr, SC bid × 2",+
same,Mean CFU/g thigh muscle (SEM),"[2]; 72 hr, SC bid × 3",1.48 × 10^9 CFU/g
same,CFU/Drug Plate - Dilution 10^0,"[2]; 72 hr, SC bid × 3",+
same,CFU/Drug Plate - Dilution 10^−1,"[2]; 72 hr, SC bid × 3",+
same,Mean CFU/g thigh muscle (SEM),"[2]; Day 8, SC bid × 7",all animals died
same,protection of the animals,[2]; LpxCi-5 at 35 mg/kg bid (70 mg/kg/day),provides protection to the animals out to 72 hours
same,"resistant CFU present at 24, 48 and 72 hours",[2]; LpxCi-5 at 35 mg/kg bid alone,> 10^3 CFU/thigh
same,total burden of CFU by 72 hours,[2]; LpxCi-5 at 35 mg/kg bid alone,> 10^9 CFU/thigh
same,in vivo synergy and suppression of emergence of resistant mutants,[2]; LpxCi-5 with Vancomycin,synergistic with Vancomycin in vivo
same,survival to Day 8,[2]; bid for seven consecutive days,All animals were dead by Day 8
"C[C@@H](O)[C@H]1C(=O)N2C(C(=O)O)=C(SCCN=CN)C[C@H]12 [Imipenem, imipenem]",Synergy Score,"gram negative bacteria; with LpxCi-1, antibacterial agent at 1/16 MIC",0.40
same,Synergy Score,"gram negative bacteria; with LpxCi-1, antibacterial agent at 1/64 MIC",.035
same,Synergy Score,"gram negative bacteria; with LpxCi-1, antibacterial agent at ¼ MIC",0.58
same,Synergy Score,"gram negative bacteria; with LpxCi-2, antibacterial agent at 1/16 MIC",1.06
same,Synergy Score,"gram negative bacteria; with LpxCi-2, antibacterial agent at 1/64 MIC",1.02
same,Synergy Score,"gram negative bacteria; with LpxCi-2, antibacterial agent at ¼ MIC",1.25
same,Synergy Score,gram negative bacteria; [4],0.17
same,Synergy Score,gram negative bacteria; [5],0.13
same,Synergy Score,gram negative bacteria; [6],0.36
O=C(O)c1cn(C2CC2)c2cc(N3CCNCC3)c(F)cc2c1=O [Ciprofloxacin],Synergy Score,gram negative bacteria; [4],1.06
same,Synergy Score,gram negative bacteria; [5],1.02
same,Synergy Score,gram negative bacteria; [6],1.25
